Test results: patent US12630520B2, “Left-handed bicyclic morpholine and salt thereof, preparation method therefor, pharmaceutical composition, and use” (Institute of Materia Medica, Chinese Academy of Medical …, priority 2019, dated 2026)

How the values were obtained:
HepG2 cells [1] = experiment: 4-Acetamidophenol (APAP)-induced in vitro hepatocyte injury, MTT and LDH; assay type: cell-based, human; details: HepG2, 10 μM, 8 mM APAP
Protocol: (§1) Human liver cancer HepG2 cell well retained the characteristics of normal human hepatocytes, and they were grown in a DMEM medium containing 10% of fetal calf cerium (containing 100 U/mL of penicillin and 100 μg/mL of streptomycin) at the culturing conditions: 37° C., 5% of CO2 and a saturated humidity. A solution containing 0.25% of trypsin and 0.02% of EDTA was used for digestions and passages.
(§2) A MTT method was adopted. The HepG2 cells were inoculated in a 96-well cell culture plate, and after 24 hour cultures, the (+)IMM-H014, the (−)IMM-H014 and the (±)IMM-H014 were added in a non-toxic concentration whilst the 4-acetamidophenol (APAP, a final concentration of 8 mM) was added thereto. A Bicyclol positive control group, a solvent control group and a model group were set for the experiment. The culture was continued for 24 h. 100 μL of the culture solution was taken and centrifuged, and a full-automatic biochemical analyzer in a LDH detection kit was utilized to detect the LDH level therein. The remaining culture solution was discarded, and to each well, 100 μL of a MTT (0.5 mg/mL) solution was added to continue the culture for 4 hours. The MTT solution was discarded, and to each well, 150 μL of DMSO was added. The mixture was oscillated by a mixing oscillator, and the absorbance value was measured at a wavelength of 570 nm in a microplate reader. Cell survival rate (%)=(OD mean of administration group/OD mean of solvent control group)×100%.
(§3) The data were presented as a number mean±standard deviation (x±SD).

HepG2 cells [2] = experiment: Carbon tetrachloride (CCl4)-induced in vitro hepatocyte injury, MTT; assay type: cell-based, human; details: HepG2, 10 μM
Protocol: as §1, with “cells” for “cell”
as §2, with “carbon tetrachloride (CCl4,” for “4-acetamidophenol (APAP,”, “0.6%)” for “8 mM)”, “They acted on the cells continuously” for “The culture was continued”, “h.” for “h. 100 μL of the culture solution was taken and centrifuged, and a full-automatic biochemical analyzer in a LDH detection kit was utilized to detect the LDH level therein.”, “The” for “The remaining”, “to” for “to continue the”
as §3

SMILES: COC(=O)c1cc(OC)c2c(c1-c1c(CO)cc(OC)c3c1OCO3)OCO2 [Bicyclol]
- Survival rates (%) (HepG2 cells [1]; 24 h, MTT): 50.67%
- OD Mean ± SD (HepG2 cells [1]; 24 h, MTT, 570 nm): 0.454 ± 0.092
- Cell survival rate increase (%) (HepG2 cells [1]; versus model group): 32.2%
- Survival rates (%) (HepG2 cells [2]; 0.6% CCl4, 24 h, MTT): 89.47%
- OD Mean ± SD (HepG2 cells [2]; 0.6% CCl4, 24 h, MTT, 570 nm): 0.819 ± 0.099
- Cell survival rate increase (%) (HepG2 cells [2]; 0.6% CCl4, versus model group): 15.36%
